Assay results as given in patent US8821898B2, “Active compound combinations having insecticidal and acaricidal properties” (Bayer CropScience AG, priority 2003, dated 2014).

How the values were obtained:
Assay type in all cases: in vivo
[1] = system: Aphis gossypii; experiment: Aphis gossypii test (dipped cotton leaves)
Protocol: (§1) To produce a suitable preparation of active compound, 1 part by weight of active compound is mixed with the stated amounts of solvent and emulsifier, and the concentrate is diluted with emulsifier-containing water to the desired concentration.
Cotton leaves (Gossypium hirsutum) which are heavily infested by the cotton aphid (Aphis gossypii) are treated by being dipped into the preparation of active compound of the desired concentration.
After the desired period of time; the kill in % is determined. 100% means that all aphids have been killed; 0% means that none of the aphids have been killed. The determined kill rates are entered into Colby's formula (see page 41).

[2] = system: Phaedon cochleariae larvae; experiment: Phaedon cochleariae larvae test (dipped cabbage leaves)
Protocol: as §1
Cabbage leaves (Brassica oleracea) are treated by being dipped into the preparation of active compound of the desired concentration and are populated with larvae of the mustard beetle (Phaedon cochleariae) while the leaves are still moist.
After the desired period of time, the kill in % is determined. 100% means that all beetle larvae have been killed; 0% means that none of the beetle larvae have been killed. The determined kill rates are entered into Colby's formula (see page 41).

[3] = system: Myzus persicae; experiment: Myzus persicae test (dipped cabbage leaves); conditions: 4 ppm
Protocol: as §1
Cabbage leaves (Brassica oleracea) which are heavily infested by the green peach aphid (Myzus persicae) are treated by being dipped into the preparation of active compound of the desired concentration.
After the desired period of time, the kill in % is determined. 100% means that all aphids have been killed; 0% means that none of the aphids have been killed. The determined kill rates are entered into Colby's formula (see on page 41).

[4] = system: Spodoptera frugiperda; experiment: Spodoptera frugiperda test (dipped cabbage leaves)
Protocol: as §1
Cabbage leaves (Brassica oleracea) are treated by being dipped into the preparation of active compound of the desired concentration and are populated with caterpillars of the army worm (Spodoptera frugiperda) while the leaves are still moist.
(§2) After the desired period of time, the kill in % is determined. 100% means that all caterpillars have been killed; 0% means that none of the caterpillars have been killed. The determined kill rates are entered into Colby's formula (see page 41).

[5] = system: Plutella xylostella, resistant strain; experiment: Plutella xylostella test (resistant strain)
Protocol: as §1
Cabbage leaves (Brassica oleracea) are treated by being dipped into the preparation of active compound of the desired concentration and are populated with caterpillars of the diamondback moth (Plutella xylostella, resistant strain) while the leaves are still moist.
as §2

Q: How did the “Kill rate in % after 7d, found” value ([1]; 20 ppm) turn out when CC(C)N1C(=O)N(c2ccccc2)CS/C1=N\C(C)(C)C [(2-2) buprofezin, buprofezin, reference compound] was run?
A: The value was 0%.

Q: What about the “Kill rate in % after 3d, found” value ([2]; 100 ppm) of the same compound?
A: Its value is 20%.

Q: What does the source list for N#CCNC(=O)c1cnccc1C(F)(F)F [(2-6) flonicamid, flonicamid, reference compound]?
A: Kill rate in % after 6d, found ([1]; 20 ppm): 40%; Kill rate in % after 6d, found ([3]; Table B2): 40%; Kill rate in % after 3d, found ([4]; 100 ppm): 5%

Q: With CCOC(=O)OC1=C(c2cc(C)ccc2C)C(=O)NC12CCC(OC)CC2 (stereo not shown) [I-a-4] as the compound, how does the “Kill rate in % after 6d, found” value ([3]; Table B1) read?
A: The value was 80%.

Q: And the “Kill rate in % after 6d, found” value ([2]; 4 ppm)?
A: The value was 15%.

Q: What about the “Kill rate in % after 6d, found” value ([5]; 0.16 ppm) of the same compound?
A: Its value is 0%.

Q: How did the “Kill rate in % after 7d, found” value ([1]; 4 ppm) turn out when Cc1cc(Cl)cc(C(=O)NC(C)C)c1NC(=O)c1cc(C(F)(F)F)nn1-c1ncccc1Cl [II-1-9] was run?
A: Its value is 20%.

Q: And the “Kill rate in % after 6d, found” value ([1]; 20 ppm)?
A: Its value is 55%.

Q: And the “Kill rate in % after 6d, found” value ([3]; Table B1)?
A: The value was 30%.

Q: And the “Kill rate in % after 6d, found” value ([3]; Table B2)?
A: Its value is 0%.

Q: And the “Kill rate in % after 3d, found” value ([2]; 0.16 ppm)?
A: Its value is 5%.

Q: What about the “Kill rate in % after 6d, found” value ([2]; 0.16 ppm) of the same compound?
A: The value was 0%.

Q: And the “Kill rate in % after 6d, found” value ([5]; 0.0064 ppm)?
A: The value was 0%.

Q: What about the “Kill rate in % after 3d, found” value ([4]; 0.16 ppm) of the same compound?
A: The value was 45%.
